Entries after “also recorded” stand apart in the source; their conditions may differ. Where a name gives a salt, the structure may show the parent alone. Read-outs that look alike come from different tables or passages of the source.
How the values were obtained:
AD pathology = conditions: cited from earlier work
[1] = rats; cited from earlier work
[2] = mice; cited from earlier work
[3] = rats; cited from earlier work; remark: listed apart in the source
[4] = system: tau (Thr231) phosphorylation; assay: Tau (Thr231) phosphorylation by Western blot in HEK293/tau cells; format: cell-based, human; conditions: for effect on total tau levels: any dose
Protocol: (§1) Human neuroblastoma SH-SY5Y cells (ATCC, Manassas, Va.) were cultured in DMEM/Nutrient Mixture F-12 (DMEM/F-12), 10% fetal bovine serum (FBS) and 15 mM HEPES. Chinese Hamster Ovary cells (CHO, Millipore Sigma), human embryonic kidney 293 cells expressing wild-type tau (HEK293/tau cells, ATCC) and mouse BV2 microglial cells (Creative Bioarray, Shirley, N.Y.) were cultured in DMEM with 10% FBS. SH-SY5Y cells and CHO cells were cultured in 24-well plates at a density of 2.5×10^5 cells/well. HEK293/tau cells were cultured in 24-well plates at a density of 3.5×10^5 cells/well, after being treated with Tetracycline (1:1000) for about 24 h to create high and stable cells lines (24).
(§2) Cells were treated with LiCS or NaCS at 0, 5, 10, 20, 40, 60 or 90 μM or LiCl at 0, 0.06, 0.15, 0.3, 0.6, 1.2 and 2.5 mM for 18 hours, followed by washing with ice-cold PBS 3×, lysis with cell lysis buffer and centrifugation at 1.4×10^4 rpm for 20 minutes. The supernatants were then used for analysis of GSK3β (Ser) and tau (Thr^231) phosphorylation by Western Blot (WB) and WB bands were calculated by Image J software (Java 1.6.0_20, NIH, USA).

[5] = system: GSK3β (Ser9) phosphorylation; assay: Inhibitory GSK3β (Ser9) phosphorylation and total GSK3β by Western blot, statements covering both CHO and SH-SY5Y cells; format: cell-based; conditions: for effect on total GSK3β levels: any dose; for concentration at which increase of pGSK3β starts / maximal increase of pGSK3β: both CHO and SH-SY5Y cells (summary)
Protocol: as §1, §2

LPS-induced TNFα = format: cell-based, mouse; conditions: for concentration at which decrease of LPS-induced TNFα starts: LPS 100 ng/ml, 3 h
[6] = system: GSK3β (Ser9) phosphorylation; assay: Inhibitory GSK3β (Ser9) phosphorylation by Western blot in CHO cells; format: cell-based, Chinese Hamster; conditions: for maximal increase of pGSK3β: 18 h, vs no treatment; for concentration at which increase of pGSK3β starts: 18 h treatment, WB densitometry
Protocol: as §1, §2

autistic features = conditions: 2 mmol/kg i.p./day, Sprague-Dawley rats; cited from earlier work
[7] = Lithium levels in blood plasma, brain, kidney and liver of mice after oral gavage (lithium ELISA); format: in vivo, C57BL/6J male mice
Protocol: C57BL/6J male mice at 4 months of age were treated with LiCl or LiCS at 0.04 mmol lithium/mouse p.o by gavage, followed by determination of lithium levels in blood plasma, brain, kidney and liver at 0.5, 1, 2, 3, 5 and 24 h after gavage by ELISA (N=2 mice/time point).
At 0.5, 1, 2, 3, 5 and 24 h after treating mice with LiCl or LiCS p.o. by gavage, mice were anesthetized with isoflourane (50 mg/kg) (Sigma-Aldrich), euthanized by bilateral thoracotomy, and blood was collected. Brain, kidney, and liver were harvested, homogenized in 400 μL ddH2O with Minilys tissue homogenizer (Bertin Technologies, Montigny-le-Bretonneux, France), and centrifuged for 30 min. Lithium levels in plasma and supematants from brain, kidney, and liver homogenates were determined by ELISA (Biovision, Milpitas, Calif.) following the manufacturer's instructions. Plasma, brain, kidney and liver homogenates from control mice were used to generate standard curve.

[8] = system: GSK3β (Ser9) phosphorylation; assay: Inhibitory GSK3β (Ser9) phosphorylation by Western blot in SH-SY5Y cells; format: cell-based, Human; conditions: for maximal increase of pGSK3β: 18 h; for concentration at which increase of pGSK3β starts: 18 h treatment, WB densitometry
Protocol: as §1, §2

[9] = all liposomes tested; cited from earlier work
[10] = long term oral administration, Tg2576 and 3XTg AD mice
[11] = NaCS at any dose between 5 and 90 μM, sulfate
[12] = 0.04 mmol lithium/mouse p.o., 0.5 and 5 h after gavage

O=C(O)[C@@H]1CCCN1.O=C([O-])c1ccccc1O.[Li+] [LISPRO]
AD-related behavioral impairment (AD pathology; AD mouse models): reduced AD-related behavioral impairment | AD pathology (β-amyloid plaques, tau hyperphosphorylation, neuroinflammation, neuronal and synaptic protein loss, GSK3β activity) (AD pathology; [10]): reduced AD pathology | renal inflammation (AD pathology; [10]): without eliciting renal inflammation | brain lithium levels compared with lithium carbonate or lithium salicylate [1]: significantly higher brain lithium levels | plasma lithium levels compared with lithium carbonate or lithium salicylate [1]: more steady plasma lithium levels | brain lithium levels compared with lithium carbonate or lithium salicylate [2]: significantly higher brain lithium levels | plasma lithium levels compared with lithium carbonate or lithium salicylate [2]: more steady plasma lithium levels

O=C([O-])c1ccccc1O.[Li+] [lithium salicylate]
plasma lithium levels and elimination compared with lithium lactate [3]: longer elevated plasma lithium levels with a slower elimination process

CC(C)CCC[C@@H](C)[C@H]1CC[C@H]2[C@@H]3CC=C4C[C@@H](OS(=O)(=O)[O-])CC[C@]4(C)[C@H]3CC[C@]12C.[Na+] [NaCS, sodium cholesterol sulfate]
effect on ptau (Thr231) ([4]; NaCS at any dose between 5 and 60 μM, 18 h, sulfate): neither LiCl at any dose between 60 μM and 1.25 mM nor NaCS at any dose between 5 and 60 μM altered ptau | effect on ptau (Thr231) [4, 11]: did not alter; also recorded: failed to alter | effect on total tau levels ([4]; 18 h, sulfate): neither LiCS, NaCS nor LiCl at any dose altered | effect on pGSK3β ([5]; NaCS at 5-90 μM, 18 h, CHO and SH-SY5Y cells, sulfate): did not alter; also recorded: failed to alter | effect on total GSK3β levels ([5]; 18 h, CHO and SH-SY5Y cells): neither LiCS, LiCl nor NaCS altered | effect on LPS-induced TNFα level (LPS-induced TNFα; NaCS at any concentration between 20 and 80 μM): not altered | effect on LPS-induced TNFα level (LPS-induced TNFα; [11]): did not alter; also recorded: failed to alter

[Cl-].[Li+] [LiCl, lithium chloride]
effect on ptau (Thr231) ([4]; LiCl at any dose between 60 μM and 1.25 mM, 18 h): not altered; also recorded: neither LiCl at any dose between 60 μM and 1.25 mM nor NaCS at any dose between 5 and 60 μM altered ptau; also recorded: ineffective even at millimolar levels; also recorded: failed to alter | effect on total tau levels ([4]; 18 h): neither LiCS, NaCS nor LiCl at any dose altered | maximal increase of pGSK3β ([6]; LiCl at 1.25 mM): 91% | concentration at which increase of pGSK3β starts [6]: 160 μM | extent of pGSK3β increase at 60 μM [5]: minimally | concentration levels at which pGSK3β increased ([5]; CHO and SH-SY5Y cells): high micromolar and low millimoloar levels | effect on total GSK3β levels ([5]; 18 h, CHO and SH-SY5Y cells): without altering; also recorded: neither LiCS, LiCl nor NaCS altered | concentration at which increase of pGSK3β starts [5]: 60 μM | maximal increase of pGSK3β ([5]; LiCl at 1.25 mM): approximately 100% | concentration at which decrease of LPS-induced TNFα starts (LPS-induced TNFα; BV2 cells): 5 mM | autistic features (social interaction deficit, repetitive self-grooming, anxiety, depression) (autistic features): reversed autistic features | lithium levels in the brain [7, 12]: increased at 5 h | lithium levels in the kidney [7, 12]: increased at 0.5 and 5 h; also recorded: markedly increases | lithium levels in the liver [7, 12]: failed to increase at any time | maximal increase of pGSK3β ([8]; LiCl at 2.5 mM): 119% | concentration at which increase of pGSK3β starts [8]: 60 μM

CC(C)CCC[C@@H](C)[C@H]1CC[C@H]2[C@@H]3CC=C4C[C@@H](OS(=O)(=O)O)CC[C@]4(C)[C@H]3CC[C@]12C [cholesterol sulfate]
rate of intermembrane exchange relative to cholesterol [9]: approximately 10 fold

CC(C)CCC[C@@H](C)[C@H]1CC[C@H]2[C@@H]3CC=C4C[C@@H](OS(=O)(=O)[O-])CC[C@]4(C)[C@H]3CC[C@]12C.[Li+] [LiCS, lithium cholesterol sulfate]
concentration levels at which tau (Thr231) phosphorylation is reduced ([4]; HEK293/tau cells): at micromolar levels | concentration at which decrease of ptau (Thr231) starts ([4]; HEK293/tau cells, 18 h): 10 µM | maximal decrease of ptau (Thr231) ([4]; HEK293/tau cells, 18 h, LiCS at 40 μM): 63% | effect on total tau levels ([4]; 18 h, listed as UCS, sulfate): without altering | effect on total tau levels ([4]; 18 h, sulfate): neither LiCS, NaCS nor LiCl at any dose altered | maximal increase of pGSK3β ([6]; LiCS at 60 μM): 92% | concentration at which increase of pGSK3β starts [6]: 10 μM | extent of pGSK3β increase at 60 μM [5]: maximally | concentration levels at which pGSK3β increased ([5]; CHO and SH-SY5Y cells): low micromolar levels | potency relative to LiCl in increasing inhibitory GSK3β (Ser9) phosphorylation ([5]; CHO and SH-SY5Y cells): 21-28 fold | effect on total GSK3β levels ([5]; 18 h, CHO and SH-SY5Y cells, sulfate): without altering; also recorded: neither LiCS, LiCl nor NaCS altered | potency compared with LiCl in increasing inhibitory GSK3β (Ser9) phosphorylation ([5]; both CHO and SH-SY5Y cells): more potent than LiCl | concentration at which increase of pGSK3β starts [5]: 10 μM | maximal increase of pGSK3β ([5]; LiCS at 60 μM): approximately 100% | effectiveness compared with LiCl in reducing microglial LPS-induced TNFα production (LPS-induced TNFα; BV2 cells): more effective than LiCl | potency relative to LiCl for reducing LPS-induced TNFα production (LPS-induced TNFα; BV2 cells): approximately 250 fold | concentration at which decrease of LPS-induced TNFα starts (LPS-induced TNFα; BV2 cells): 0.02 mM | lithium levels in the liver [7, 12]: failed to increase at any time | lithium levels in the kidney ([7]; 0.04 mmol lithium/mouse p.o., 0.5 and 5 h after gavage, listed as UCS, sulfate): LiCl but not UCS treatment markedly increases | lithium levels in the kidney ([7]; 0.04 mmol lithium/mouse p.o., 0.5 and 5 h after gavage, sulfate): failed to increase at any time | lithium blood levels compared with LiCl oral treatment ([7]; oral treatment, mice): more stable and last longer | crossing of the blood-brain barrier ([7]; oral treatment, mice, compared with LiCl): more readily crosses the blood-brain barrier | maximal increase of pGSK3β ([8]; LiCS at 90 μM): 90% | concentration at which increase of pGSK3β starts [8]: 10 μM
